Assay results as given in US20060167229A1, “Biologically active peptide conjugates” (priority 2002, published 2006).
Marks after values point to notes of the source that are not given here. Ends that are not written are not given here.

Legend:
[1] = test system: spleen; test: Immunity organ weight test, spleen index; format: in vivo, BALB/c mice; details: for weight of spleen (spleen index), X ± SD (%): healthy mice, peptide 500 μg/kg/day i.p. 15 days, saline 0.53 ± 0.05; for effect on the weight of the spleen (summary): statistically significant difference from saline in any of the dosage groups 0.5-500 μg/kg/day
Method: (§1) One day after the last test substance administration (day 16), the liver, spleen, and thymus gland were separated and blotted dry with filter paper and weighed. The phagocytosis index α was calculated as below: α=(^3√{square root over ( )}K)(W÷WLS)
Spleen index (%)=(spleen weight/body weight)×100%

[2] = test system: IL-2; test: T lymphocyte IL-2 secretion test (HT-2 cell bioassay of ConA supernatant); format: in vivo, BALB/c mice; details: for activity of T lymphocyte in secreting IL-2, X ± SD (IU): healthy mice
Method: (§2) Spleen cells of density 1×10^6/ml were placed onto a 96 wells cell culture plate, 100 μL/well, three parallel wells each of the assay sample and control sample per mouse. To the assay wells, 100 μl/well ConA of 100 μg/ml in RPMI-1640 was added, and […] plain RPMI-1640 was used for the controls. The cells were incubated for 66 hrs at 37° C., 5% CO2. The cells were then pelleted by centrifugation at 150 g for 10 minutes.
HT-2 cells at log phase were collected by centrifugation at 150 g for 10 minutes, and washed three times with cold Hank's solution by re-suspension and centrifugation. The collected HT-2 cells were re-suspended in RPMI-1640 and incubated at 37° C., 5% CO2 for 30 minutes. The cells were further washed twice with RPMI-1640 by re-suspension and centrifugation, and re-suspended to final concentration of 2×10^5/ml with RPMI-1640.
rIL-2 was diluted to the following concentration with RPMI-1640: 500 IU/ml, 250 IU/ml, 125 IU/ml, 62.5 IU/ml, 31.25 IU/ml, and […].
The plate was incubated at 37° C., 5% CO2 for 68 hours, then centrifuged at 150 g for 15 minutes and the supernatant removed. 100 μl 0.5 mg/ml MTT in RPMI-1640 without phenolsulfonphthalein was added into each well. After shaking for 3-4 minutes to re-suspend the cells, continue to incubate for another 4 hours. Samples were then centrifuged at 150 g for 15 minutes and the supernatant was removed. To each well, 120 μl 40 mM HCl-2-propanol was added, mixed for 3-4 minutes and OD analyzed at 570 nm, referenced at 630 nm with an ELISA plate reader.
The average OD of the three parallel wells of each dilution was taken and plotted against concentration on a semi-log paper, concentration on the X-axis. The concentration at 50% OD saturation was obtained for both the testing supernatant and rIL-2.

[3] = test system: anti-SRBC antibody; test: Sheep Red Blood Cell (SRBC) hemolysis test, antibody formation; format: in vivo, BALB/c mice; details: for anti-SRBC antibody formation, X ± SD (Unit): healthy mice, SRBC day 12 (IFN-γ, IL-2 3×10^5 IU/kg/day), saline 32 ± 7; for effect on the synthesis of anti-SRBC antibody upon the antigenic challenge (summary): statistically significant difference from saline in any of the dosage groups 0.5-500 μg/kg/day
Method: Sheep red blood cells (SRBC) were prepared by collecting blood from cervical vein and put into a sterile flask with glass beads. The flask was shaken for 3 minutes and the blood then mixed with Alsever solution (glucose 2.05 g, NaCl 0.4 g, […] 0.8 g, adjust to 100 ml with distilled water) and stored at 4° C. Immediately before use, samples were centrifuged at 130 g, 5 minutes to collect the SRBC. The cells were washed two times by re-suspension and centrifugation in normal saline. Then the cell pellet was collected by centrifugation at 180 g for 10 minutes and re-suspended in saline to make the final working SRBC suspension, 2% (v/v).
Complement was prepared by adding 10 volumes of fresh Cavy serum into one volume centrifuge packed SRBC, and then gently shaking for 30 minutes at 4° C. The SRBC was removed by centrifugation at 200 g for 10 minutes. 10 volumes of normal saline were added to obtain the working complement solution.
The test substances were administered as described in section 1.1, plus intraperitoneal injection 0.2 ml SRBC per mouse on day 12. On the day after the last test substance administration (day 16), blood was collected from the eye canthus and left at room temperature for one hour for serum exudation. After centrifugation at 200 g for 10 minutes, the serum was diluted by 500 times with normal saline.
To 1 ml diluted mouse serum of each mouse, 0.5 ml SRBC suspension was added. Ice cold. Then 1 ml working complement solution was added and incubated at 37° C. water bath for 10 minutes. Reactions were terminated by ice cold. Samples were then centrifuged at 200 g for 10 minutes to obtain the supernatant.
To 1 ml of this supernatant, 3 ml Drabkin solution was added and left at room temperature for 10 minutes. OD540 nm was obtained.
Reference OD540 nm was obtained by mixing 0.25 ml SRBC suspension with Drabkin solution to 4 ml and placed at room temperature for 10 minutes before OD540 nm was taken.
Sample serum index=(OD540 nm of test sample÷reference OD540 nm)×500

[4] = test system: T lymphocyte; test: T lymphocyte transformation test (ConA-stimulated spleen cells of treated mice, MTT); format: in vivo, BALB/c mice; details: for X ± SD (stimulation index): healthy mice, saline 1.3 ± 0.1; for effect on T lymphocyte transformation (summary): statistically significant difference from saline in any of the dosage groups 0.5-500 μg/kg/day
Method: (§3) The above substances were all dissolved in 0.5 ml saline and injected intraperitoneal (i.p.) for 15 continuous days, once per day.
(§4) Ten mice per group. The day after the last test substance administration, the mice were sacrificed by cervical dislocation. The spleen was isolated aseptically and manually dispersed in cold D-Hank's solution using an injection needle. The dispersed cell suspension was further sieved through a 100 gauge 150 μm diameter stainless steel sieve. After centrifugation at 200 g for 10 minutes, the supernatant was discarded. The cell pellet was re-suspended in 10 volume of Tris-NH4Cl buffer and then kept standing still for 10 minutes at room temperature. The suspended cells were collected by centrifugation at 150 g for 10 minutes. The cells were washed 2-4 times with cold D-Hank's solution by re-suspending and collecting by centrifugation with condition as described above. The washed cells were then diluted to the desired cell densities by RPMI-1640 culture medium, containing 10% fetal bovine serum.
as §2
50 μl/well MTT of 1 mg/ml in RPMI-1640 was added to the cell pellet and the cells re-suspended by shaking for 2 minutes. The incubation was continued for 4 hours. The supernatant was discarded after centrifugation at 150 g for 10 minutes. 120 μl 40 mM HCl-2-propanol was added to the cell pellet and shaken for 3 minutes. […]
Each mouse formed three assay wells and three control wells. The Stimulation Index (SI) of each mouse was obtained by first deriving the average OD of the three parallel wells, then dividing the value of the assay wells by the control wells.

[5] = test system: NK cell; test: NK cell cytotoxicity activity test (spleen cells of treated mice against YAC-1 target cells, MTT); format: in vivo, BALB/c mice; details: for NK cell cytotoxic activity, X ± SD (%): healthy mice; for effect on the cytotoxic activity of NK cells (summary): statistically significant difference from saline in any of the dosage groups 0.5-500 μg/kg/day
Method: as §3, §4
Mice spleen cells were prepared to 4×10^6/ml as described in section 1.1 above. Target cells YAC-1 were brought to log phase and adjusted to 1×10^5/ml. Using a 96 wells cell culture plate, […] were added to the control well containing only the spleen cells; […] and 100 μl culture medium were added to the control well containing only target cells; 100 μl mouse spleen cells and 100 μl target cells were added to the NK activity assay well. Three parallel sets of the above were prepared per mouse.
Samples were centrifuged at 150 g for 10 minutes to collect the cells. The supernatant was discarded and 50 μl/well MTT of 1 mg/ml was added. The reaction-mixture was then shaken for 2 minutes, and incubated at 37° C., 5% CO2 for 4 hours. The supernatant was discarded after centrifugation at 150 g for 10 minutes. […] 40 mM HCl-2-propanol was added and shaken for 3 minutes. An ELISA reader was used to obtain OD570 nm of each well referenced at 630 nm.

[6] = test system: interferon (IFN); design: species or system BALB/c mice; details: mouse, in vivo; for activity of T lymphocyte in secreting IFN, X ± SD (IU): ip
[7] = test system: thymus gland; test: Immunity organ weight test, thymus gland index; format: in vivo, BALB/c mice; details: for weight of thymus gland (thymus gland index), X ± SD (%): healthy mice, saline 0.12 ± 0.02; for effect on the weight of the thymus gland (summary): statistically significant difference from saline in any of the dosage groups 0.5-500 μg/kg/day
Method: as §1
Thymus gland index (%)=(thymus weight/body weight)×100%

[8] = test system: mononuclear phagocyte; test: Carbon particle clearance test, phagocytosis function; format: in vivo, BALB/c mice; design: key to X ± SD (phagocytotic index): α = cube root of K × (body weight ÷ liver+spleen weight)
Method: On the next day after the last test substance administration (day 16), the mice were injected with […] body weight India ink (5 times dilution with normal saline) from the tail vein.
One minute and five minutes after Indian ink injection, 20 μl blood was obtained from the eye canthus with a heparinized tubing. The blood was mixed with 2 ml 0.1% w/v Na2CO3 and then OD680 nm obtained. The outline clear index K was calculated by the following formula: K=(lgA1−lgA2)÷(t2−t1)
as §1

[9] = statistically significant difference from saline in any of the dosage groups 0.5-500 μg/kg/day
[10] = peptide 5 μg/kg/day i.p. 15 days
[11] = peptide 500 μg/kg/day i.p. 15 days
[12] = peptide 5 μg/kg/day i.p. 15 days (IFN-γ, IL-2 3×10^5 IU/kg/day)
[13] = peptide 500 μg/kg/day i.p. 15 days (IFN-γ, IL-2 3×10^5 IU/kg/day)
[14] = peptide 500 μg/kg/day i.p. 15 days (IFN-γ, IL-2 3×10^5 IU/kg/day), saline 63 ± 9
[15] = peptide 0.5 μg/kg/day i.p. 15 days
[16] = peptide 50 μg/kg/day i.p. 15 days

Row | Substance | weight of spleen (spleen index), X ± SD (%) [1] [%] | effect on the weight of the spleen (summary) [1] | anti-SRBC antibody formation, X ± SD (Unit) [3, 10] | anti-SRBC antibody formation, X ± SD (Unit) [3, 11] | effect on the synthesis of anti-SRBC antibody upon the antigenic challenge (summary) [3] | X ± SD (stimulation index) [4, 13] | effect on T lymphocyte transformation (summary) [4] | NK cell cytotoxic activity, X ± SD (%) [5, 14] [%] | effect on the cytotoxic activity of NK cells (summary) [5] | effect on the secretion of IFN by T lymphocytes (summary) [6] | activity of T lymphocyte in secreting IFN, X ± SD (IU) [6] | weight of thymus gland (thymus gland index), X ± SD (%) [7, 12] | effect on the weight of the thymus gland (summary) [7] | anti-SRBC antibody formation, X ± SD (Unit) [3, 15] | anti-SRBC antibody formation, X ± SD (Unit) [3, 16] | further results
1 | Ala Gly Asp Asp Ala Pro Arg Ala Val Phe (AGDDAPRAVF; listed as Sus scrofa) [CMS007] | 0.32 ± 0.05 | decrease | 122 ± 12*^@^ Unit | 69 ± 17*^@ Unit | enhance | 1.6 ± 0.1 | enhance |  |  |  |  |  |  |  |  | activity of T lymphocyte in secreting IL-2, X ± SD (IU) ([2]; peptide 5 μg/kg/day i.p. 15 days (IFN-γ, IL-2 3×10^5 IU/kg/day), saline 37 ± 9): 64 ± 12 IU; activity of T lymphocyte in secreting IL-2, X ± SD (IU) ([2]; peptide 500 μg/kg/day i.p. 15 days (IFN-γ, IL-2 3×10^5 IU/kg/day), saline 39 ± 10): 86 ± 15*^ IU; effect on the secretion of interleukin-2 (IL-2) by T lymphocytes (summary) [2, 9]: enhance; X ± SD (stimulation index) [4, 12]: 1.7 ± 0.1
2 | LRVAPQEHPVL [CMS013] | 0.44 ± 0.07 | decrease | 93 ± 28*^@ Unit | 80 ± 16*^@ Unit |  |  |  | 84 ± 9 | increase | enhance | 154 ± 15*^@^ IU | 0.21 ± 0.05 % | increase | 7 ± 1 Unit | 70 ± 9*^@ Unit | X ± SD (phagocytotic index) ([8]; healthy mice, peptide 5 μg/kg/day i.p. 15 days (IFN-γ, IL-2 3×10^5 IU/kg/day), saline 5.1 ± 0.6): 6.7 ± 0.2; effect on the phagocytotic activity of mononuclear phagocyte (summary) [8, 9]: enhance
3 | MATAASSSSL [CMS021] | 0.36 ± 0.04 | decrease | 82 ± 30*^@ Unit |  | enhance | 1.6 ± 0.1 | enhance |  | increase | enhance | 143 ± 17*^@^ IU | 0.20 ± 0.06 % | increase | 57 ± 9*^@ Unit | 94 ± 20*^@^ Unit | NK cell cytotoxic activity, X ± SD (%) ([5]; peptide 50 μg/kg/day i.p. 15 days (IFN-γ, IL-2 3×10^5 IU/kg/day), saline 56 ± 8): 88 ± 12*^@^ %
4 | Phe Gln Pro Ser Phe (FQPSF; printed: Phe Gln Pro Ser Phe) [CMS028] |  |  | 121 ± 48*^@^ Unit |  |  |  |  | 90 ± 5 | increase | enhance | 96 ± 13 IU | 0.28 ± 0.06*^@^ % | increase | 18 ± 5 Unit |  | NK cell cytotoxic activity, X ± SD (%) ([5]; peptide 0.5 μg/kg/day i.p. 15 days (IFN-γ, IL-2 3×10^5 IU/kg/day), saline 58 ± 7): 79 ± 3 %; weight of thymus gland (thymus gland index), X ± SD (%) ([7]; peptide 0.5 μg/kg/day i.p. 15 days (IFN-γ, IL-2 3×10^5 IU/kg/day)): 0.20 ± 0.06 %; weight of thymus gland (thymus gland index), X ± SD (%) ([7]; peptide 50 μg/kg/day i.p. 15 days (IFN-γ, IL-2 3×10^5 IU/kg/day)): 0.18 ± 0.04 %; weight of thymus gland (thymus gland index), X ± SD (%) [7, 13]: 0.19 ± 0.02 %
